Where two headings read alike, the source gives them in different places.
Experiments:
Assay type in all cases: cell-based
[1] = test system: TICs (Ovarian 2393A); experiment: Ovarian tumor-initiating cell growth inhibition (Alamar Blue); settings: 144 h, 6 days, read-out: Tumor Initiating Cell GI50 Range Ovarain 2393A
[2] = test system: TICs (Colon 12); experiment: Colon tumor-initiating cell growth inhibition (Alamar Blue); settings: 216 h, 9 days, read-out: Tumor Initiating Cell GI50 Range Colon 12
[3] = test system: ovarian cancer cells (PA-1); experiment: Cancer cell line growth inhibition (SRB assay); settings: read-out: Cancer Cell Line GI50 Range PA-1
[4] = test system: colon cancer cells (HCT116); experiment: Cancer cell line growth inhibition (SRB assay); settings: Homo sapiens, HCT-116, read-out: Cancer Cell Line GI50 Range HCT116
[5] = PA-1 ovarian cancer cells, SRB assay
[6] = HCT116 colon cancer cells, SRB assay

Structure (SMILES) | GI50 ([1]; ovarian TICs, Alamar Blue) [nM] | GI50 ([2]; colon TICs, Alamar Blue) [nM] | GI50 [3, 5] [nM] | GI50 [4, 6] [nM] | GI50 ([1]; Ovarian 2393A TICs) [nM] | GI50 ([2]; Colon 12 TICs) [nM] | GI50 ([3]; Homo sapiens, PA-1) [nM] | GI50 [4] [nM]
CC(C)C(NC(=O)c1ccc2[nH]nc(-c3ccc(OC4CCN(C)CC4)cc3)c2c1)c1ccccc1Cl (stereo not shown) [Example A144, N-(1-(2-chlorophenyl)-2-methylpropyl)-3-(4-((1-methylpiperidin-4-yl)oxy)phenyl)-1H-indazole-5-carboxamide] | < 100 | < 100 | < 100 | < 100 | – | – | – | –
CN1CCC(Oc2ccc(-c3n[nH]c4ccc(C(=O)NC(c5cccs5)C5CC5)cc34)cc2)CC1 (stereo not shown) [Example A147, N-(cyclopropyl(thiophen-2-yl)methyl)-3-(4-((1-methylpiperidin-4-yl)oxy)phenyl)-1H-indazole-5-carboxamide] | < 100 | 100 to 500 | < 100 | < 100 | – | – | – | –
COc1ccccc1C(NC(=O)c1ccc2[nH]nc(-c3ccc(OC4CCN(C)CC4)cc3)c2c1)C1CC1 (stereo not shown) [Example A151, N-(cyclopropyl(2-methoxyphenyl)methyl)-3-(4-((1-methylpiperidin-4-yl)oxy)phenyl)-1H-indazole-5-carboxamide] | 100 to 500 | 100 to 500 | 100 to 500 | < 100 | – | – | – | –
O=C(NC(c1ccccc1)C1CC1)c1ccc2[nH]nc(-c3ccc(OC4CCN(C5COC5)CC4)cc3)c2c1 (stereo not shown) [Example A157, N-(cyclopropyl(phenyl)methyl)-3-(4-((1-(oxetan-3-yl)piperidin-4-yl)oxy)phenyl)-1H-indazole-5-carboxamide] | 100 to 500 | 100 to 500 | 100 to 500 | 100 to 500 | – | – | – | –
O=CN1CCC(Oc2ccc(-c3n[nH]c4ccc(C(=O)NC(c5ccccn5)C5CC5)cc34)cc2)CC1 (stereo not shown) [Example A160, N-(cyclopropyl(pyridin-2-yl)methyl)-3-(4-((1-formylpiperidin-4-yl)oxy)phenyl)-1H-indazole-5-carboxamide] | 100 to 500 | 100 to 500 | 100 to 500 | < 100 | – | – | – | –
CN1CCC(Oc2ccc(-c3n[nH]c4ccc(C(=O)NC(c5ccccc5)C5CCCCC5)cc34)cc2)CC1 (stereo not shown) [Example A170, N-(cyclohexyl(phenyl)methyl)-3-(4-((1-methylpiperidin-4-yl)oxy)phenyl)-1H-indazole-5-carboxamide] | > 500 | > 500 | > 500 | > 500 | – | – | – | –
O=C(NC(c1ccccn1)C1CC1)c1ccc2[nH]nc(-c3ccc(OC4CCN(C5COC5)CC4)cc3)c2c1 (stereo not shown) [Example A171, N-(cyclopropyl(pyridin-2-yl)methyl)-3-(4-((1-(oxetan-3-yl)piperidin-4-yl)oxy)phenyl)-1H-indazole-5-carboxamide] | < 100 | 100 to 500 | < 100 | < 100 | – | – | – | –
O=C(Nc1ccc2[nH]nc(-c3ccc(N4CCOCC4)cc3)c2c1)C(c1ccsc1)N1CCC1 (stereo not shown) [Example A172, 2-(azetidin-1-yl)-N-(3-(4-morpholinophenyl)-1H-indazol-5-yl)-2-(thiophen-3-yl)acetamide] | < 100 | < 100 | < 100 | < 100 | – | – | – | –
COC[C@@H](NC(=O)c1ccc2[nH]nc(-c3ccc(OC4CCN(C)CC4)cc3)c2c1)c1ccccc1 [Example A173, (S)-N-(2-methoxy-1-phenylethyl)-3-(4-((1-methylpiperidin-4-yl)oxy)phenyl)-5-carboxamide] | 100 to 500 | > 500 | 100 to 500 | 100 to 500 | – | – | – | –
CC[C@@H](NC(=O)c1ccc2[nH]nc(-c3ccc(OC4CCN(C)CC4)cc3)c2c1)c1cccc(OC)c1 [Example A174, (R)-N-(1-(3-methoxyphenyl)propyl)-3-(4-((1-methylpiperidin-4-yl)oxy)phenyl)-1H-indazole-5-carboxamide] | 100 to 500 | 100 to 500 | 100 to 500 | < 100 | – | – | – | –
CN1CCC(Oc2ccc(-c3n[nH]c4ccc(C(=O)NC(c5ccccc5)C5CCOCC5)cc34)cc2)CC1 (stereo not shown) [Example A177, 3-(4-((1-methylpiperidin-4-yl)oxy)phenyl)-N-(phenyl(tetrahydro-2H-pyran-4-yl)methyl)-1H-indazole-5-carboxamide] | 100 to 500 | 100 to 500 | 100 to 500 | < 100 | – | – | – | –
CN1[C@@H]2CC[C@H]1C[C@@H](Oc1ccc(-c3n[nH]c4ccc(C(=O)NC(c5ccccc5)C5CC5)cc34)cc1)C2 (stereo partly shown) [Example A178] | 100 to 500 | 100 to 500 | < 100 | < 100 | – | – | – | –
CC(C)(O)C1CCN(c2ccc(-c3n[nH]c4ccc(C(=O)NC(c5ccccn5)C5CC5)cc34)cc2)CC1 (stereo not shown) [Example A180, N-(cyclopropyl(pyridin-2-yl)methyl)-3-(4-(4-(2-hydroxypropan-2-yl)piperidin-1-yl)phenyl)-1H-indazole-5-carboxamide] | 100 to 500 | 100 to 500 | 100 to 500 | < 100 | – | – | – | –
O=CN1CCC(Oc2ccc(-c3n[nH]c4ccc(C(=O)NC(c5ccccc5F)C5CC5)cc34)cc2)CC1 (stereo not shown) [Example A182] | < 100 | < 100 | < 100 | < 100 | – | – | – | –
CN1CCC(Oc2ccc(-c3n[nH]c4ccc(NC(=O)C(OC5CCCC5)c5ccccc5)cc34)cc2)CC1 (stereo not shown) [Example A183, 2-(cyclopentyloxy)-N-(3-(4-((1-methylpiperidin-4-yl)oxy)phenyl)-1H-indazol-5-yl)-2-phenylacetamide] | > 500 | > 500 | 100 to 500 | 100 to 500 | – | – | – | –
O=C(Nc1ccc2[nH]nc(-c3ccc(OC4CCN(C5COC5)CC4)cc3)c2c1)C(c1ccccc1)C1CC1 (stereo not shown) [Example A185, 2-cyclopropyl-N-(3-(4-((1-(oxetan-3-yl)piperidin-4-yl)oxy)phenyl)-1H-indazol-5-yl)-2-phenylacetamide] | 100 to 500 | 100 to 500 | 100 to 500 | 100 to 500 | – | – | – | –
O=C(Nc1ccc2[nH]nc(-c3ccc(OC4CN(C5COC5)C4)cc3)c2c1)C(c1ccsc1)N1CCCC1 (stereo not shown) [Example A189, N-(3-(4-((1-(oxetan-3-yl)azetidin-3-yl)oxy)phenyl)-1H-indazol-5-yl)-2-(pyrrolidin-1-yl)-2-(thiophen-3-yl)acetamide] | > 500 | > 500 | < 100 | < 100 | – | – | – | –
O=C(NC(c1ccccc1)C1CC1)c1ccc2[nH]nc(-c3ccc(OC4CN(C5COC5)C4)cc3)c2c1 (stereo not shown) [Example A190, N-(cyclopropyl(phenyl)methyl)-3-(4-((1-(oxetan-3-yl)azetidin-3-yl)oxy)phenyl)-1H-indazole-5-carboxamide] | 100 to 500 | 100 to 500 | 100 to 500 | 100 to 500 | – | – | – | –
CN1CCC(Oc2ccc(-c3n[nH]c4ccc(NC(=O)C(c5ccsc5)N5CCC5)cc34)cc2)CC1 (stereo not shown) [Example A191, 2-(azetidin-1-yl)-N-(3-(4-((1-methylpiperidin-4-yl)oxy)phenyl)-1H-indazol-5-yl)-2-(thiophen-3-yl)acetamide] | < 100 | 100 to 500 | < 100 | < 100 | – | – | – | –
O=C(N[C@H](c1ccccn1)C1CC1)c1ccc2[nH]nc(-c3ccc(OC4CCN(C5COC5)CC4)cc3)c2c1 [Example A197, (S)-N-(cyclopropyl(pyridin-2-yl)methyl)-3-(4-((1-(oxetan-3-yl)piperidin-4-yl)oxy)phenyl)-1H-indazole-5-carboxamide] | < 100 | < 100 | < 100 | < 100 | – | – | – | –
CN1CCC(Oc2ccc(-c3n[nH]c4ccc(C(=O)NC(c5ccccn5)C5CC5)cc34)cc2Cl)CC1 (stereo not shown) [Example A198, 3-(3-chloro-4-((1-methylpiperidin-4-yl)oxy)phenyl)-N-(cyclopropyl(pyridin-2-yl)methyl)-1H-indazole-5-carboxamide] | 100 to 500 | 100 to 500 | 100 to 500 | < 100 | – | – | – | –
O=C(Nc1ccc2[nH]nc(-c3ccc(N4CCC(O)CC4)cc3)c2c1)C(c1ccsc1)N1CCC1 (stereo not shown) [Example A200, 2-(azetidin-1-yl)-N-(3-(4-(4-hydroxypiperidin-1-yl)phenyl)-1H-indazol-5-yl)-2-(thiophen-3-yl)acetamide] | < 100 | 100 to 500 | < 100 | < 100 | – | – | – | –
CC(C)(O)C1CCN(c2ccc(-c3n[nH]c4ccc(NC(=O)C(c5ccsc5)N5CCC5)cc34)cc2)CC1 (stereo not shown) [Example A201, 2-(azetidin-1-yl)-N-(3-(4-(4-(2-hydroxypropan-2-yl)piperidin-1-yl)phenyl)-1H-indazol-5-yl)-2-(thiophen-3-yl)acetamide] | < 100 | < 100 | < 100 | < 100 | – | – | – | –
O=CN1CCC(Oc2ccc(-c3n[nH]c4ccc(C(=O)N[C@H](c5ccccn5)C5CC5)cc34)cc2)CC1 [Example A204, (S)-N-(cyclopropyl(pyridin-2-yl)methyl)-3-(4-((1-formylpiperidin-4-yl)oxy)phenyl)-1H-indazole-5-carboxamide] | < 100 | < 100 | < 100 | < 100 | – | – | – | –
CN1CCC(Oc2ccc(-c3n[nH]c4ccc(C(=O)NC(c5ccccn5)C5CCC5)cc34)cc2)CC1 (stereo not shown) [Example A210, N-(cyclobutyl(pyridin-2-yl)methyl)-3-(4-((1-methylpiperidin-4-yl)oxy)phenyl)-1H-indazole-5-carboxamide] | – | – | – | – | 100 to 500 | 100 to 500 | < 100 | < 100

From US9580390B2, “Indazole compounds as kinase inhibitors and method of treating cancer with same” (University Health Network, priority 2011, dated 2017)
